Test results published in patent US20240269158A1, “THERAPEUTIC AGENTS AND METHODS FOR TREATMENT OF BARTONELLOSIS” (THE ADMINISTRATORS OF THE TULANE EDUCATIONAL FUND, priority 2021, published 2024).
Read-outs that look alike come from different tables or passages of the source.

What was measured:
[1] = system: intracellular B. henselae in DH82 cells; test: DH82 cell-based MBC assay (coculture); design: species or system Bartonella henselae (canine DH82 cells); settings: for MBC: B. henselae, DH82 cell-based assay, 96 hours; for effect of individual therapeutic agent on B. henselae growth: DH82 cell-based system, 16 μg/ml, agents used individually
Experimental: DH82 are a canine cell line having a macrophage-like morphology. Cells were initially cultured in T75-Flasks (Corning, 430641U) until confluency was reached and were split at a ratio of 1:4 for every 2-3 days. Cells were then seeded into either 24-well cell culture plates (Corning, 3526) for coculture assay or 8-well chamber slides (Millipore #PEGGS0816) for immunofluorescence assays. A total of 50,000 cells were seeded into each well of a 24-well plate or per chamber of an 8-well chamber slide with EMEM with 15% FBS and incubated for 24-48 hours before infections.
Therapeutic agent stocks were prepared in the following solvents: 10 mg/ml of ceftriaxone (USP), doxycycline (Fisher scientific, D9891-1G), gentamicin (Fisher scientific, 1405-41-0), ampicillin (Fisher scientific, 69-52-3) and azlocillin (Flightpath) in sterile cell culture grade water, whereas 5 mg/ml of azithromycin (Sigma, PZ0007-5MG) was dissolved in sterile cell culture grade DMSO. Antibiotics were then aliquoted and stored at either −80° C. or −20° C. until further use. On the day of assay, these stock concentrations were diluted to 1 mg/ml and 100 μg/ml in the respected bacterial culture media for MIC and cell-free, liquid culture MBC assays. For the DH82 cell-based MBC assay, antibiotics were diluted in EMEM media supplemented with 15% heat inactivated FBS.
Bacteria (B. henselae) that were grown in Grace's insect media, were centrifuged at 7000 rpm for 10 min. The supernatant was removed and washed with 1×PBS for three times. After the washes, pellet was resuspended in EMEM media supplemented with 15% heat inactivated FBS. This bacterial suspension was then added to DH82 cells at a multiplicity of infection (MOI) of 1:50 and incubated for 2 hours. After 2 hours, unbound bacteria were removed by washing the cells with only EMEM media 3 times each 15 min wash. Cells were then incubated with EMEM+15% FBS media at 37° C. with 5% CO2 for 48 hours.
After 48 hrs of incubation, the media was removed from the cells and the therapeutic agents that were diluted in EMEM+15% FBS was added. Each therapeutic agent was diluted at 11 different concentrations (16, 8, 4, 2, 1, 0.5, 0.25, 0.125, 0.062, 0.031, 0.0156 μg/ml), as described above and incubated for 96 hours. […] The bactericidal activity of the therapeutic agents were then evaluated by plating the lysed cells on blood agar plates. Briefly, infected DH82 cells were initially washed for 30 min twice to remove the antibiotics that were added. Later, cells were osmotically lysed by adding 1 ml of sterile ice-cold distilled water and incubated for 5 min on ice. The lysed cells were then plated onto blood agar plates and incubated at 37° C. with 5% CO2 for about 10 days to evaluate the growth of viable B. henselae. This experiment was conducted in duplicates and repeated twice with all 6 antibiotics including 11 different concentrations. The untreated infected cells were used as a positive control and untreated uninfected cells served as a negative control. The CFU counts are presented as average±standard deviation.
To evaluate the bactericidal activity and to determine if these antibiotics could penetrate the eukaryotic […], a new DH82 cell-based coculture system was utilized. […] Uninfected cells stained with primary rabbit B. henselaehyperimmunized polyclonal (primary) and goat anti-rabbit IgG Alexa fluor 594 (secondary) antibodies were used as a negative control. As an isotype control, DH82 cells infected with B. henselae and incubated with primary rabbit IgG were used.

[2] = system: B. henselae and B. vinsonii; test: Live/dead BacLight staining; assay type: cell-based, Bartonella; settings: 10 μg/ml
Experimental: To determine the viability of the bacteria grown in liquid culture media, LIVE/DEAD BacLight™ Bacterial viability kit for microscopy (ThermoFisher, L7012) was used according to the manufacturer's protocol. Briefly, 7-day old liquid culture media was used for the determination of the viability. Initially, bacteria were diluted down to an optical density (OD) of 0.1 using the respective liquid culture media. 1 ml of 0.1 OD bacterial culture was then transferred into a 2 ml microcentrifuge tube and centrifuged at 7000 rpm for 10 min. After removing the supernatant, the pellet was resuspended in 1 ml of 0.85% NaCl and bacteria was pelleted again. After three washes, bacteria were resuspended in 1 ml of 0.85% NaCl and incubated with 1 μl of green-fluorescent nucleic acid dye (SYTO9) and 1 μl of red-fluorescent nucleic acid dye (PI) for 15 minutes. All the incubations were performed at room temperature and in the dark. After 15 minutes of incubation with both the dyes, bacteria were visualized under fluorescence microscopy and images were acquired using Nikon NIS elements software. Later, mean fluorescence intensity of both the SYTO9 and PI was measured using the Nikon elements software. Mean fluorescence values were acquired from a total of 10 images per experimental condition. To obtain dead cell counts, bacteria were treated with 70% isopropanol and incubated for 1 hr, while the sample was mixed for every 15 min and stained as above. Additionally, the entire staining protocol was repeated by staining the bacteria with PI first and then with SYTO9 both on dead and live bacteria and the fluorescence values were recorded accordingly. However, in the staining of therapeutic agent treated bacteria, both the dyes were pre-mixed into 1 ml of sterile-filtered distilled water, as previously described and 10 μl of the mixture was added into each well, incubated and visualized as described above.
Bacteria were stained with the live/dead BacLight™ kit to determine the viability of the bacteria before every experiment. […] Viability was also measured after 96 hours on control, untreated bacteria. […]

[3] = system: B. henselae and B. vinsonii; test: Cell-free MBC assay, summary over both species; assay type: cell-based, Bartonella; settings: 10 μg/ml
Experimental: Briefly, the bacterial culture that was treated with therapeutic agents for 96 hrs was collected into a 1.5 ml microcentrifuge tubes and centrifuged at 7000 rpm for 10 min. The supernatant was removed, and the bacterial pellet was washed with 1×PBS twice. The bacterial pellet was then resuspended in 100 μL of 1×PBS, plated onto blood agar plates and incubated at 37° C. with 5% CO2 for about 14 days. This assay was repeated three times with all the 6 different antibiotics (azlocillin, azithromycin, ceftriaxone, doxycycline, gentamicin and ampicillin) and at different concentrations.
For this assay, both B. henselae and B. vinsonii were grown in Grace's insect media and were tested against all of the 6 antibiotics (ceftriaxone, doxycycline, gentamicin, azithromycin, azlocillin, ampicillin). […] However, ceftriaxone, gentamicin, azithromycin, and azlocillin were all bactericidal and completely eliminated the growth at concentrations below 10 µg/ml. Table 2 provides comparison of MBCs for B. henselae and B. vinsonii strains in cell-free liquid culture medium determined by incubating the bacteria with antibiotics in a 96-well plate and plating on tryptic soy agar supplemented with 5% sheep blood. Additionally, MBC for B. henselae determined by DH82 cell-based assay (right column) is provided.

[4] = Bartonella henselae, read-out: MBC

gentamicin
MBC [1]: >16 mg/L

CC[C@H]1OC(=O)[C@H](C)[C@@H](O[C@H]2C[C@@](C)(OC)[C@@H](O)[C@H](C)O2)[C@H](C)[C@@H](O[C@@H]2O[C@H](C)C[C@H](N(C)C)[C@H]2O)[C@](C)(O)C[C@@H](C)CN(C)[C@H](C)[C@@H](O)[C@]1(C)O [Azithromycin, azithromycin]
live/dead staining signal of treated bacteria [2]: showed only SYTO9 signal
growth on blood agar plates [3]: no growth on blood agar plates
MBC [1, 4]: > 16 mg/L
effect of individual therapeutic agent on B. henselae growth [1]: showed reduced bacterial growth but were unable to completely inhibit the growth

CO/N=C(\C(=O)N[C@@H]1C(=O)N2C(C(=O)O)=C(CSc3nc(=O)c(=O)[nH]n3C)CS[C@H]12)c1csc(N)n1 [Ceftriaxone, ceftriaxone]
live/dead staining signal of treated bacteria [2]: showed only SYTO9 signal
growth on blood agar plates [3]: no growth on blood agar plates
MBC [1, 4]: > 16 mg/L

CC1(C)S[C@@H]2[C@H](NC(=O)[C@H](NC(=O)N3CCNC3=O)c3ccccc3)C(=O)N2[C@H]1C(=O)O [Azlocillin, azlocillin]
live/dead staining signal of treated bacteria [2]: showed only SYTO9 signal
growth on blood agar plates [3]: no growth on blood agar plates
MBC [1, 4]: > 16 mg/L
effect of individual therapeutic agent on B. henselae growth [1]: showed reduced bacterial growth but were unable to completely inhibit the growth
